Results as given in PMC7824081, “Inhibition of DOT1L by Half-Selenopsammaplin A Analogs Suppresses Tumor Growth and EMT-Mediated Metastasis in Triple-Negative Breast Cancer” (Pharmaceuticals, 2020).

Columns and labels:
[1] = system: MDA-MB-231/Luc cells-implanted orthotopic mouse model; test: MDA-MB-231/Luc-implanted orthotopic mouse tumor model; format: in vivo; conditions: for tumor growth inhibition rate: end of experiment
Procedure: All animal experiments were conducted following the guidelines approved by the Seoul National University Institutional Animal Care and Use Committee (IACUC; permission number: SNU-180430-4-1). Female nude mice (BALB/c-nu), 4 weeks old, were purchased from Central Laboratory Animal, Inc. (Seoul, Korea) and housed under pathogen-free conditions with a 12 h light-dark schedule. Luciferase expressing MDA-MB-231 cells were inoculated orthotopically into the fourth fat pad of mice (1 × 10^7 cells in 100 μL of 50:50 PBS/Matrigel) using a 29-gauge needle. Two weeks after implantation, mice were randomized into vehicle control and treatment groups of six animals per group and were administered with vehicle (EtOH/Cremophor/Normal saline = 5:5:90), 9l (10 or 30 mg/kg body weight), EPZ-5676 (30 mg/kg body weight), or paclitaxel (5 mg/kg body weight, Sigma-Aldrich) as a positive reference control. Compounds were administered intraperitoneally three times per week for 38 days. An additional week later, anesthetized mice were positioned in IVIS (PerkinElmer, Waltham, MA, USA) and were imaged 15 min after injection of 150 mg/kg D-luciferin (Gold Biotechnology, St. Louis, MO, USA) resuspended in DPBS (w/o calcium or magnesium). Mice were euthanized and primary tumors and lungs were excised, weighed, and frozen for further biochemical analysis. The length (L), width (W), and height (H) of the tumors were also measured using a digital slide caliper (Mitutoyo, Kawasaki, Japan) once a week, and tumor volumes (mm^3) were estimated by the formula LWH/2. Toxicity was evaluated based on body weight loss.
A portion of the frozen tumors excised from nude mice on the termination day of the experiment was homogenized using a hand-held homogenizer in complete lysis buffer (Active Motif, Carlsbad, CA, USA). Aliquots were stored at −80 °C, and the levels of protein expression in the tumor lysates were determined. The protein concentrations in the tumor lysates were measured using the Bradford assay.

[2] = system: H3K79 methylation (DOT1L) in MDA-MB-231 cells; test: Western blotting of H3K79 methylation in MDA-MB-231 cells; format: cell-based, human; conditions: indicated concentrations, 48 h
Procedure: (§1) Total cell lysates were prepared in 2× sample loading buffer [250 mM Tris-HCl (pH 6.8), 10% glycerol, 4% sodium dodecyl sulfate (SDS), 2% β-mercaptoethanol, 0.006% bromophenol blue, 5 mM sodium orthovanadate, and 50 mM sodium fluoride; Bio-Rad, Hercules, CA, USA]. The protein concentrations of samples were quantified using the bicinchoninic acid (BCA) method and a BCA Protein Assay Kit (Thermo Fisher Scientific, Waltham, MA, USA). Equal amounts of protein (5–20 μg) were separated by 6–13% SDS-polyacrylamide gel electrophoresis (PAGE) and transferred to polyvinylidene fluoride membranes (Millipore, Bedford, MA, USA). The membranes were blocked with 5% bovine serum albumin (Sigma-Aldrich) and then probed with anti-DOT1L, anti-H3K79me2, anti-β-Actin, anti-histone H3, anti-H3K4me2, anti-H3K27me2, anti-H3K36me2, anti-H3K79me1, anti-H3K79me3, and anti-Vimentin antibodies purchased from Cell Signaling Technology (Beverly, MA, USA) or with anti-E-cadherin and anti-N-cadherin antibodies purchased from (BD Biosciences, San Jose, CA, USA). The blots were detected using a WEST-Queen detection system (iNtRON Biotechnology, Seongnam, Korea).

[3] = system: E-cadherin, N-cadherin, vimentin in MDA-MB-231 cells; test: Western blotting of EMT biomarkers in MDA-MB-231 cells; format: cell-based, human; conditions: 24 h
Procedure: as §1

[4] = IVIS imaging, vs vehicle-treated control
[5] = western blotting of tumor lysates

## CC(C)(C)c1ccc(C/C(=N\O)C(=O)NCC[Se]Sc2ccccc2)cc1 [9l, (E)-3-(4-(tert-Butyl)phenyl)-2-(hydroxyimino)-N-(2-((phenylthio)selanyl)ethyl)propanamide]
[1]; 10 mg/kg i.p., three times per week for 38 days
  tumor growth inhibition rate: 44.0%
[1]; 30 mg/kg i.p., three times per week for 38 days
  tumor growth inhibition rate: 55.8%
[1]; 10 or 30 mg/kg i.p., three times per week for 38 days
  toxicity / body weight change: No overt toxicity or changes in body weight
[1]; [4]
  luminescence signal intensity from the primary tumor sites: decreased
  luminescence signal intensity in excised lung tissues (lung metastasis): efficiently suppressed
[1]; [5]
  E-cadherin level in excised tumors: upregulated
  H3K79me2 protein level in excised tumors: downregulated
  Ki-67 expression in tumor tissues: significantly suppressed
  N-cadherin protein level in excised tumors: downregulated
  vimentin protein level in excised tumors: downregulated
[2]
  H3K79 methylations: effectively suppressed H3K79 methylations in a concentration-dependent manner
[3]
  E-cadherin protein expression: upregulation
  N-cadherin protein expression: downregulation
  vimentin protein expression: downregulation
